Earlier results, collected in US20030055013A1, “HCV combination therapy” (SCHERING CORPORATION, priority 2001, published 2003).

Experiments:
[1] = per 1 mg (Goodman & Gilman)
[2] = test system: HIV patients; conditions: higher doses, PO, Phase I/II clinical trials (PharmaProjects)
[3] = monotherapy, patients with chronic hepatitis C, prior studies
[4] = test system: chronic childhood cholestasis; conditions: 20-25 IU/kg/day (Sokool et al.)
[5] = stored between 2° and 8° C. and used within 24 hours of reconstitution

Row | Compound | potency of 1 mg in IU of Vitamin E [1] | also measured
1 | CC(=O)Oc1c(C)c(C)c2c(c1C)CC[C@@](C)(CCC[C@H](C)CCC[C@H](C)CCCC(C)C)O2 (racemic) [dl-alpha tocopheryl acetate] | one | 
2 | CC(C)(Sc1cc(C(C)(C)C)c(O)c(C(C)(C)C)c1)Sc1cc(C(C)(C)C)c(O)c(C(C)(C)C)c1 [Panavia, 4,4′-isopropylidenedithiobis-2,6-di-t-butylphenol] |  | CD4 levels [2]: stablized or slightly stabilized
3 | NC(=O)c1ncn([C@@H]2O[C@H](CO)[C@@H](O)[C@H]2O)n1 [Ribavirin, ribavirin] |  | patients with reduction in hemoglobin of greater than 4 g/dL [3]: 15.7 % of patients
4 | Cc1c(C)c2c(c(C)c1O)CC[C@@](C)(CCC[C@H](C)CCC[C@H](C)CCCC(C)C)O2 [d-alpha tocopherol] | 1.49 IU | 
5 | CC(=O)Oc1c(C)c(C)c2c(c1C)CC[C@@](C)(CCC[C@H](C)CCC[C@H](C)CCCC(C)C)O2 [d-alpha tocopheryl acetate] | 1.36 IU | 
6 | Cc1c(C)c2c(c(C)c1OC(=O)CCC(=O)O)CC[C@@](C)(CCC[C@H](C)CCC[C@H](C)CCCC(C)C)O2 [d-alpha tocopheryl succinate] | 1.21 IU | 
7 | d-alpha-tocopheryl polyethylene glycol 1000 succinate [Vitamin E-TPGS] |  | safety and efficacy in chronic childhood cholestasis [4]: safe and effective
8 | interferon alfa |  | stability of reconstituted aqueous solutions [5]: stable
